This passage reports IC50 results from ChEMBL document CHEMBL3822389, “New insights into 3-(aminomethyl)naphthoquinones: Evaluation of cytotoxicity, electrochemical behavior and search for structure-activity correlation” (Bioorg Med Chem Lett, 2016).

The subject of test [1] is MDA-MB-435. In words: Cytotoxicity against human MDA-MB-435 cells after 72 hrs by MTT assay. It counts as functional, cell-based. For orientation: Tetrazolium dyes change colour on reduction, which living cells bring about.
Test [2] in a line: Cytotoxicity against human HL60 cells after 72 hrs by MTT assay. Format: functional, cell-based, HL-60.
A short description of test [3]: Cytotoxicity against human HCT8 cells after 72 hrs by MTT assay. Format: functional, cell-based, HCT-8.
A short description of test [4]: Cytotoxicity against human SF295 cells after 72 hrs by MTT assay. Format: functional, cell-based, SF-295.

The IC50 is the concentration that inhibits the measured activity by half. A lower IC50 goes with greater potency in that assay. As for `COc1ccc(NC(C2=C(O)C(=O)c3ccccc3C2=O)c2ccccn2)cc1` (stereo not given), the IC50 in test [1] (Homo sapiens, MDA-MB-435, 72 h) was over 40 µM; in test [2] (Homo sapiens, HL-60, 72 h) it was over 40 µM; in test [3] (Homo sapiens, HCT-8, 72 h), over 40 µM; in test [4] (Homo sapiens, SF-295, 72 h), over 40 µM.
Turning to `Cc1ccc(O)c(C(NCc2ccccc2)C2=C(O)C(=O)c3ccccc3C2=O)c1` (stereo not given), the IC50 amounted to 15.8 µM in test [1] (mda-mb-435); 7.2 µM in test [2] (Homo sapiens, HL-60, 72 h); 11.3 µM in test [3] (hct-8); 8.5 µM in test [4] (Homo sapiens, SF-295, 72 h).
In the case of `CCCCNC(C1=C(O)C(=O)c2ccccc2C1=O)c1ccccc1O` (stereo not given), the IC50 was over 40 µM in test [1] (Homo sapiens, MDA-MB-435, 72 h); over 40 µM in test [2] (hl-60); over 40 µM in test [3] (Homo sapiens, HCT-8, 72 h); over 40 µM in test [4] (sf-295).
As to `O=C1C(O)=C(C(NCCCCl)c2ccccn2)C(=O)c2ccccc21` (stereo not given), the IC50 in test [1] (Homo sapiens, MDA-MB-435, 72 h) was over 40 µM; in test [2] (Homo sapiens, HL-60, 72 h) it was over 40 µM; in test [3] (Homo sapiens, HCT-8, 72 h) it was over 40 µM; in test [4] (Homo sapiens, SF-295, 72 h) it was over 40 µM.
On to `CCCCCCCNC(C1=C(O)C(=O)c2ccccc2C1=O)c1ccc([N+](=O)[O-])cc1` (stereo not given), for which the half-inhibitory concentration (IC50) was over 40 µM in test [1] (Homo sapiens, MDA-MB-435, 72 h); over 40 µM in test [2] (Homo sapiens, HL-60, 72 h); over 40 µM in test [3] (Homo sapiens, HCT-8, 72 h); over 40 µM in test [4] (Homo sapiens, SF-295, 72 h).
Turning to `O=C1C(O)=C(C(NCc2ccccn2)c2ccccc2)C(=O)c2ccccc21` (stereo not given), the concentration for half-maximal inhibition (IC50) in test [1] (mda-mb-435) is over 40 µM; in test [2] (hl-60), over 40 µM; in test [3] (hct-8) it was 14.3 µM; in test [4] (sf-295), over 40 µM.
As to `CC(C)(C)OC(=O)NCCCNC(C1=C(O)C(=O)c2ccccc2C1=O)c1ccccc1` (stereo not given), the IC50 was over 40 µM in test [1] (Homo sapiens, MDA-MB-435, 72 h); over 40 µM in test [2] (Homo sapiens, HL-60, 72 h); over 40 µM in test [3] (Homo sapiens, HCT-8, 72 h); over 40 µM in test [4] (Homo sapiens, SF-295, 72 h).
`O=C1C(O)=C(C(NCc2ccco2)c2ccccc2O)C(=O)c2ccccc21` (stereo not given): the IC50 in test [1] (mda-mb-435) was 20.2 µM; in test [2] (Homo sapiens, HL-60, 72 h), 1.1 µM; in test [3] (hct-8), 14.4 µM; in test [4] (sf-295), 23.4 µM.
In the case of `CCCCCCCNC(C1=C(O)C(=O)c2ccccc2C1=O)c1ccc(Cl)cc1Cl` (stereo not given), the concentration for half-maximal inhibition (IC50) in test [1] (Homo sapiens, MDA-MB-435, 72 h) was over 40 µM; in test [2] (Homo sapiens, HL-60, 72 h), 4.5 µM; in test [3] (Homo sapiens, HCT-8, 72 h) it was over 40 µM; in test [4] (Homo sapiens, SF-295, 72 h) it was over 40 µM.
As to `O=C1C(O)=C(C(NCCCCl)c2cc(Br)ccc2O)C(=O)c2ccccc21` (stereo not given), the IC50 in test [1] (Homo sapiens, MDA-MB-435, 72 h) is over 40 µM; in test [2] (Homo sapiens, HL-60, 72 h) it was 8.4 µM; in test [3] (Homo sapiens, HCT-8, 72 h), over 40 µM; in test [4] (Homo sapiens, SF-295, 72 h), 28.8 µM.
Consider `O=C1C(O)=C(C(NCc2ccco2)c2ccccn2)C(=O)c2ccccc21` (stereo not given), for which the 50% inhibitory concentration (IC50) in test [1] (Homo sapiens, MDA-MB-435, 72 h) is over 40 µM; in test [2] (Homo sapiens, HL-60, 72 h) it was 5.8 µM; in test [3] (Homo sapiens, HCT-8, 72 h), 4.4 µM; in test [4] (Homo sapiens, SF-295, 72 h), 3.3 µM.
Taken in the same sequence, the figures for `CCCCCCCCCCNC(C1=C(O)C(=O)c2ccccc2C1=O)c1cccc(O)c1` (stereo not given) were 31.1 µM, 11.9 µM, 25.8 µM and over 40 µM.
Taken in the same sequence, the figures for `O=C1C(O)=C(C(NCCCCl)c2ccc(Cl)cc2Cl)C(=O)c2ccccc21` (stereo not given) were over 40 µM, over 40 µM, over 40 µM and over 40 µM.
In the same order, the values of `CCCCNC(C1=C(O)C(=O)c2ccccc2C1=O)c1cccc(O)c1` (stereo not given) are over 40 µM, over 40 µM, over 40 µM and over 40 µM.
Regarding `CCCCCCCNC(C1=C(O)C(=O)c2ccccc2C1=O)c1cc(Br)ccc1O` (stereo not given), the IC50 in test [1] (Homo sapiens, MDA-MB-435, 72 h) was over 40 µM; in test [2] (Homo sapiens, HL-60, 72 h) it was over 40 µM; in test [3] (Homo sapiens, HCT-8, 72 h), over 40 µM; in test [4] (Homo sapiens, SF-295, 72 h), over 40 µM.
